# Test system: calcium level in the serum
# Assay: Experiment 2: effects of various bases on serum calcium reduction
# Type: in vivo, Wistar rats
# Conditions: for Reduction rate (%) of calcium level in the serum: S-970 + citric acid, intravaginal suppository 20 μg, rats
# Method: An intravaginal suppository was administered into the rat's vagina, and the blood was collected periodically (2, 4 and 6 hours after administration of the test preparation).
# The serum was separated, and the calcium level in the serum was determined by using a kit for determination of calcium (Calcium C Test Wako; manufactured by Wako Pure Chemical Industries, Ltd.) (n=3).
# In the same manner as in Experiment 1, each intravaginal suppository was administered to the rat's vagina, and the blood was collected periodically (2, 4 and 6 hours after administration of intravaginal suppository), and the calcium level in the serum thereof was determined (n=4).
substance,measurement,setting,value
Human calcitonin,Reduction rate (%) of calcium level in the serum,"base Cacao butter, 2 hr",12.5%
same,Reduction rate (%) of calcium level in the serum,"base Cacao butter, 4 hr",10.7%
same,Reduction rate (%) of calcium level in the serum,"base Cacao butter, 6 hr",8.3%
same,Reduction rate (%) of calcium level in the serum,"base Pharmasol B-105, 2 hr",13.4%
same,Reduction rate (%) of calcium level in the serum,"base Pharmasol B-105, 4 hr",14.8%
same,Reduction rate (%) of calcium level in the serum,"base Pharmasol B-105, 6 hr",10.6%
same,Reduction rate (%) of calcium level in the serum,"base Witepsol H-15, 2 hr",16.8%
same,Reduction rate (%) of calcium level in the serum,"base Witepsol H-15, 4 hr",17.7%
same,Reduction rate (%) of calcium level in the serum,"base Witepsol H-15, 6 hr",10.4%
same,Reduction rate (%) of calcium level in the serum,"base Witepsol S-55, 2 hr",16.5%
same,Reduction rate (%) of calcium level in the serum,"base Witepsol S-55, 4 hr",22.5%
same,Reduction rate (%) of calcium level in the serum,"base Witepsol S-55, 6 hr",13.0%
same,Reduction rate (%) of calcium level in the serum,"base Witepsol W-35, 2 hr",6.6%
same,Reduction rate (%) of calcium level in the serum,"base Witepsol W-35, 4 hr",20.4%
same,Reduction rate (%) of calcium level in the serum,"base Witepsol W-35, 6 hr",13.2%
same,promotion effect on absorption of calcitonin,"combination of sucrose fatty acid ester and citric acid, five bases",extremely excellent promotion effect on absorption of calcitonin regardless of any base to be used

# Reference: patent US5776886A, “Intravaginal preparation containing physiologically active peptide” (Teikoku Seiyaku Kabushiki Kaisha, priority 1993, dated 1998)
